Series [1] concerns the target T1, Human TOR (Homo sapiens, UniProt P42345).
T1 construct: FLAG
Put plainly: Human TOR (mTOR) kinase assay, DELFIA format. It is filed as biochemical. The method, boiled down: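 Purified FLAG-TOR (800 ng/mL) phosphorylates His6-S6K ([…]) with […] ATP in Hepes pH 7.4 buffer containing MnCl2, 2 h at room temperature. Phospho-Thr389 S6K detected by DELFIA using Europium-labelled anti-P(T389)-p70S6K antibody; enzyme inhibition calculated from signal.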

Series [2] has as its system T2, PI3K.
T2 construct: PI3K FP IC50
Put plainly: Fluorescence polarization assay for PI3K. It is filed as biochemical. As to conditions: for PI3K FP IC50: Table 1; for IC50: Table 2. The method, boiled down:
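PI3K was preincubated with compound at 1% DMSO final, then reacted with PIP2/ATP substrate for 30-60 min. The reaction was stopped with a detector mix giving 10 nM red probe and 70 nM GST-GRP. Fluorescence polarization (mP, Tamra filters) was read 30-90 min later and IC50 determined.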

Series [3] has as its system phosphor-AKT (S473) in Rat1 cells. Put plainly: Rat1-IGF1 assay (IGF-1 induced phospho-AKT immunoblot). As to conditions: for IC50: Rattus norvegicus. It is filed as cell-based, rat. Summed up: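 After 24 h serum starvation, Rat1 cells got vehicle or varying 17-HWT concentrations for 2 hours, then IGF-1 (100 ng/mL) for 30 minutes. Lysates immunoblotted for phospho-AKT (S473) and total AKT.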

The subject of series [4] is LNCaP (human prostate carcinoma). Put plainly: Cell proliferation (MTS) assay, LNCaP. It is filed as cell-based. As to conditions: three days treatment; for IC50: Homo sapiens, LNCaP, 72 h. The method, boiled down: (§1)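 Cells plated at about 3000 per well in RPMI-1640/10% FBS were dosed with compound one day later. Viability was read by MTS conversion (absorbance 490 nm, 1–2 h) three days after treatment began. Effect is expressed as percent of vehicle-treated growth on the same plate.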

Series [5] has as its system MDA468 (human breast cancer cell). Put plainly: Cell proliferation (MTS) assay, MDA468. As to conditions: three days treatment; for IC50: Homo sapiens, 72 h. It is filed as cell-based. The method, boiled down:
as §1

The test system of series [6] is MDA435 (human breast adenocarcinoma). Put plainly: Cell proliferation (MTS) assay, MDA435. Format: cell-based. As to conditions: three days treatment; for IC50: Homo sapiens, MDA435, 72 h. Summed up:
as §1

The subject of series [7] is DU145 (human prostate carcinoma/lymphocytic leukemia). Kind of series: Cell proliferation (MTS) assay, DU145. It is filed as cell-based. As to conditions: three days treatment; for IC50: Homo sapiens, DU-145, 72 h. Summed up:
as §1

Series [8] concerns PI3K. As to conditions: cited from earlier work.
The test system of series [9] is C3H mammary model. As to conditions: cited from earlier work.
In series [10] the test system is HER2/Neu-overexpressing MDA361-DYT2 breast tumor cells. Put plainly: Tumor cell growth assay, HKI-272 and combination, MDA361-DYT2. Format: cell-based, human. As to conditions: in vitro and in vivo. The method, then: Human tumor cell are all obtained from ATCC, and are cultured using standard cell culture methods. Cells are plated in 96-well culture plates at 1000 to 3000 cells per well. One day following plating, cells are treated with various doses of PI3K inhibitor Compound 4 or Compound 5 alone or with a low constant dose of MEK inhibitor 2-(2-chloro-4-iodoanilino)-N-(cycloprorylmethoxy-3,4-difluobenzamide) (1 μg/ml) or UO126 (5 μg/ml). UO126 is also known as 1,4-diamino-2,3-dicyano-1,4-bis[2-aminophenylthio]butadiene. In some experiments, cells are treated alone with various doses of the MEK inhibitor (2-(2-chloro-4-iodoanilino)-N-(cycloprorylmethoxy-3,4-difluobenzamide)), or HER2/neu inhibitor HKI-272, or mTOR inhibitor CCI-779, or with a low constant dose of Compound 4 (0.1 μg/ml). […] Three days after drug treatment, viable cell densities are determined by metabolic conversion (by viable cells) of the dye MTS, an established cell proliferation assay. […] The MTS assay results are read in a 96-well plate reader by measuring absorbance at 490 nm. The effect of each treatment is calculated as percent of control growth relative to the vehicle DMSO-treated cells grown in the same culture plate. […]

Series [11] deals with phosphorylated Her2/Neu, ERK and AKT pathway markers in MDA361-DYT2. Kind of series: Western blot analysis of pathway markers, MDA361-DYT2. It is filed as cell-based, human. As to conditions: 0.1 μg/ml. The method, then: Cells are plated in 6-well culture plates. 24 hr later, cells are treated with indicated single agents or combined agents for 16 hr in full growth media. Protein lysates are prepared for Western blot analysis as previously described in Yu, K., et al., Endocr. Relat. Cancer. 2001 September :8(3) 249-58.

≈ marks a conversion by molar mass, not a printed value. Read-outs that look alike come from different tables or passages of the source.

The values below come from patent US7666901B2, “Analogs of 17-hydroxywortmannin as PI3K inhibitors” (Wyeth, priority 2004, dated 2010).

By IC50 is commonly meant the concentration needed to halve the response being measured. For the molecule `COC[C@H]1OC(=O)c2coc3c2[C@@]1(C)C1=C(C3=O)[C@@H]2CC[C@H](O)[C@@]2(C)C[C@H]1OC(C)=O` [Compound 17-OH-Wort, 17β-Hydroxywortmannin, reference compound], the entries for the “TOR IC50” value in [1] (Table 1) and in [1] (Table 2) were 0.076 µg/mL and 0.059 µg/mL, respectively. Moreover, in series [2], the “PI3K FP IC50” value worked out at 0.0034 µg/mL. Moreover, the 50% inhibitory concentration (IC50) was 0.002 µM in [2] and 0.0005 µM in [8] (literature value). For the same molecule, the “Rat1-IGF1 IC50” value in [3] (Table 1) and in series [3] (Table 2) was less than 0.01 µg/mL throughout. The “LNCaP IC50” value turned out to be 1 µg/mL in series [4] (Table 1) and 0.3 µg/mL in [4] (Table 2). Further, the “MDA468 IC50” value was 2.3 µg/mL in [5] (Table 1) and 3 µg/mL in series [5] (Table 2). For the same molecule, the “MDA435 IC50” value in [6] (Table 1) is more than 15 µg/mL; in series [6] (Table 2), 20 µg/mL. Further, the “DU145 IC50” value came out at 15 µg/mL in series [7] (Table 1) and 13 µg/mL in series [7] (Table 2). Moreover, the “increase in activity relative to wortmannin” value in [8] (PI3K, literature) is listed as 10 fold. Besides, the toxicity entry in series [9] (dose of 1.0 mg/kg) was “toxicity”. In [9] (dose of 0.5 (mg/kg)), the antitumor activity result is reported as “no inhibition”.

In the case of `COCC1OC(=O)C(=CN(C)CC(=O)OC(C)(C)C)C2=C(O)C(=O)C3=C(C(OC(C)=O)CC4(C)C(O)CCC34)C21C` (stereo not shown) [Compound 35, [(11-Acetoxy-6,17-dihydroxy-1-methoxymethyl-10,13-dimethyl-3,7-dioxo-1,7,10,11,12,13,14,15,16,17-decahydro-2-oxa-cyclopenta[a]phenanthren-4-ylidenemethyl)-methyl-amino]-acetic acid tert-butyl ester], the IC50 in series [1] (Table 2) was 13.9 µM; in series [2] it was 1.58 µM; in [3] (Table 2) it was 0.1 µg/mL (≈ 0.174 µM); in series [4] (Table 2), 0.1 µg/mL (≈ 0.174 µM); in series [5] (Table 2) it was 1.4 µg/mL (≈ 2.43 µM); in series [6] (Table 2), 5.5 µg/mL (≈ 9.55 µM). In addition, in [7] (Table 2), the IC50 came out at 3 µg/mL (≈ 5.21 µM).

Regarding `COCC1OC(=O)C(=CN(C)CC(O)CO)C2=C(O)C(=O)C3=C(C(OC(C)=O)CC4(C)C(O)CCC34)C21C` (stereo not shown) [Compound 36, Acetic acid 4-{[(2,3-dihydroxy-propyl)-methyl-amino]-methylene}-6,17-dihydroxy-1-methoxymethyl-10,13-dimethyl-3,7-dioxo-1,3,4,7,10,11,12,13,14,15,16,17-dodecahydro-2-oxa-cyclopenta[a]phenanthren-11-yl ester], the IC50 is 2.99 µM in [1] (Table 2); 0.199 µM in series [2]; 0.1 µg/mL (≈ 0.187 µM) in series [3] (Table 2); 0.09 µg/mL (≈ 0.168 µM) in series [4] (Table 2); 2.3 µg/mL (≈ 4.29 µM) in series [5] (Table 2); 5 µg/mL (≈ 9.34 µM) in series [6] (Table 2). In series [7] (Table 2), this molecule returned an IC50 of 12 µg/mL (≈ 22.4 µM).

As for `COCC1OC(=O)C(=CN(C)CCCC(=O)O)C2=C(O)C(=O)C3=C(C(OC(C)=O)CC4(C)C(O)CCC34)C21C` (stereo not shown) [Compound 37, 4-[(11-Acetoxy-6,17-dihydroxy-1-methoxymethyl-10,13-dimethyl-3,7-dioxo-1,7,10,11,12,13,14,15,16,17-decahydro-2-oxa-cyclopenta[a]phenanthren-4-ylidenemethyl)-methyl-amino]-butyric acid], the IC50 in series [1] (Table 2) is 12.6 µM; in series [2], 0.193 µM; in series [3] (Table 2) it was 0.1 µg/mL (≈ 0.183 µM); in series [4] (Table 2), 0.2 µg/mL (≈ 0.365 µM); in [5] (Table 2), 4 µg/mL (≈ 7.3 µM); in [6] (Table 2), 12 µg/mL (≈ 21.9 µM). For the same molecule, the IC50 in series [7] (Table 2) stood at 21 µg/mL (≈ 38.3 µM).

Take `COCC1OC(=O)C(=CN2CCC2C(=O)O)C2=C(O)C(=O)C3=C(C(OC(C)=O)CC4(C)C(O)CCC34)C21C` (stereo not shown) [Compound 38, 1-(11-Acetoxy-6,17-dihydroxy-1-methoxymethyl-10,13-dimethyl-3,7-dioxo-1,7,10,11,12,13,14,15,16,17-decahydro-2-oxa-cyclopenta[a]phenanthren-4-ylidenemethyl)-azetidine-2-carboxylic acid]: the IC50 in series [1] (Table 2) was 9.59 µM; in series [2], 0.063 µM; in [3] (Table 2), 0.1 µg/mL (≈ 0.188 µM); in [4] (Table 2), 0.06 µg/mL (≈ 0.113 µM); in [5] (Table 2) it was 1.3 µg/mL (≈ 2.45 µM); in [6] (Table 2), 4 µg/mL (≈ 7.53 µM). In series [7] (Table 2), this molecule showed a 50% inhibitory concentration (IC50) of 2.4 µg/mL (≈ 4.52 µM).

Consider `COCC1OC(=O)C(=CN2CCCC2C(=O)OC)C2=C(O)C(=O)C3=C(C(OC(C)=O)CC4(C)C(O)CCC34)C21C` (stereo not shown) [Compound 39, 1-(11-Acetoxy-6,17-dihydroxy-1-methoxymethyl-10,13-dimethyl-3,7-dioxo-1,7,10,11,12,13,14,15,16,17-decahydro-2-oxa-cyclopenta[a]phenanthren-4-ylidenemethyl)-pyrrolidine-2-carboxylic acid methyl ester], for which the IC50 was 12.3 µM in series [1] (Table 2); 0.77 µM in series [2]; 0.1 µg/mL (≈ 0.179 µM) in [3] (Table 2); 0.043 µg/mL (≈ 0.0768 µM) in [4] (Table 2); 1.2 µg/mL (≈ 2.14 µM) in [5] (Table 2); 4 µg/mL (≈ 7.15 µM) in series [6] (Table 2). In addition, the IC50 in [7] (Table 2) came out at 2.4 µg/mL (≈ 4.29 µM).

With `COCC1OC(=O)C(=CN2CCCC2C(=O)OC)C2=C(O)C(=O)C3=C(C(OC(C)=O)CC4(C)C(O)CCC34)C21C` (stereo not shown) [Compound 40, 1-(11-Acetoxy-6,17-dihydroxy-1-methoxymethyl-10,13-dimethyl-3,7-dioxo-1,7,10,11,12,13,14,15,16,17-decahydro-2-oxa-cyclopenta[a]phenanthren-4-ylidenemethyl)-pyrrolidine-2-carboxylic acid methyl ester], the half-maximal inhibitory concentration (IC50) in series [1] (Table 2) is more than 17.9 µM; in [2], 0.444 µM. Besides, in [3] (Table 2), the “Rat1-IGF1 IC50” value was >0.1(hint) μg/ml. In addition, the “LNCaP IC50” value in series [4] (Table 2) came out at 0.085 µg/mL. Further, in series [5] (Table 2), the “MDA468 IC50” value came out at 0.75 µg/mL. Also, the “MDA435 IC50” value in series [6] (Table 2) is 5.5 µg/mL. In series [7] (Table 2), the “DU145 IC50” value came out at 1.85 µg/mL.

In the case of `CCOc1cc2ncc(C#N)c(Nc3ccc(OCc4ccccn4)c(Cl)c3)c2cc1NC(=O)/C=C/CN(C)C` [HKI-272, (E)-N-{4-[3-chloro-4-(2-pyridinylmethoxy)anilino]-3-cyano-7-ethoxy-6-quinolinyl}-4-(dimethylamino)-2-butenamide], the “sensitivity of MDA361-DYT2 to single agent” value in [10] is reported as “resistant”. Further, in series [11], the “effect on AKT pathway markers” value was “little effect”; the “phosphorylated forms of Her2/Neu and ERK” value is “completely inhibited”.

For the molecule “(1E,4S,4aR,5R,6aS,7S)-7,11-dihydroxy-4-(methoxymethyl)-4a,6a-dimethyl-1-{[methyl(1-methylpyrrolidin-3-yl)amino]methylene}-2,10-dioxo-1,2,4,4a,5,6,6a,7,8,9,9a,10-dodecahydroindeno[4,5-h]isochromen-5-yl acetate [Compound 6]”, the “TOR IC50” value in series [1] (Table 1) came to 0.66 µg/mL. Further, the “PI3K FP IC50” value in series [2] is 0.07 µg/mL. Also, the “Rat1-IGF1 IC50” value in series [3] (Table 1) came out at 0.02 µg/mL. For the same molecule, the “LNCaP IC50” value in [4] (Table 1) was found to be 0.55 µg/mL. Besides, in series [5] (Table 1), the “MDA468 IC50” value was found to be 2.01 µg/mL. For the same molecule, the “MDA435 IC50” value in series [6] (Table 1) was more than 15 µg/mL. Besides, the “DU145 IC50” value in series [7] (Table 1) stood at 13 µg/mL.
